# pEC50: −log10 of the molar value.
# Test system: HBV (encapsidated HBV DNA, HepG2.2.15 cells)
# Assay: HBV replication inhibition assay, BDNA assay in HepG2.2.15 cells
# Assay type: cell-based
# Settings: Hepatitis B virus, HepG2.2.15, Activity in BDNA-assay
# In short: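 HepG2.2.15 cells (stably integrated HBV, 40,000/well) treated with serially diluted compound in 0.5% DMSO for 6 days, medium and compound refreshed at day 3. DNase-treated supernatant lysed with proteinase K; encapsidated HBV DNA quantified by bDNA, percent inhibition versus DMSO controls, EC50 by nonlinear fit.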
row,Compound,pEC50
1,"C[C@@H]1Cc2nn3c(c2CN1C(=O)Nc1ccc(F)c(C(F)(F)F)c1)C(=O)N(C)C[C@H](COCC(F)F)C3 [Compound 135_D2, (3R,8S)-8-((2,2-difluoroethoxy)methyl)-N-(4-fluoro-3-(trifluoromethyl)phenyl)-3,10-dimethyl-11-oxo-1,3,4,7,8,9,10,11-octahydro-2H-pyrido[4′,3′:3,4]pyrazolo[1,5-a][1,4]diazepine-2-carboxamide]",7.00 to 9.00
2,"C[C@@H]1Cc2nn3c(c2CN1C(=O)Nc1ccc(F)c(C#N)c1)C(=O)N(C)CC(F)(F)C3 [Compound 136, (R)—N-(3-cyano-4-fluorophenyl)-8,8-difluoro-3,10-dimethyl-11-oxo-1,3,4,7,8,9,10,11-octahydro-2H-pyrido[4′,3′:3,4]pyrazolo[1,5-a][1,4]diazepine-2-carboxamide]",7.00 to 9.00
3,"C[C@@H]1Cc2nn3c(c2CN1C(=O)Nc1ccc(F)c(C#N)c1)C(=O)N(C)CC(C)(C)C3 [Compound 139, (R)-N-(3-cyano-4-fluorophenyl)-3,8,8,10-tetramethyl-11-oxo-1,3,4,7,8,9,10,11-octahydro-2H-pyrido[4′,3′:3,4]pyrazolo[1,5-a][1,4]diazepine-2-carboxamide]",7.00 to 9.00
4,"C[C@@H]1Cc2nn3c(c2CN1C(=O)Nc1ccc(F)c(C(F)(F)F)c1)C(=O)N(C)CC(C)(C)C3 [Compound 140, (R)-N-(4-Fluoro-3-(trifluoromethyl)phenyl)-3,8,8,10-tetramethyl-11-oxo-1,3,4,7,8,9,10,11-octahydro-2H-pyrido[4′,3′:3,4]pyrazolo[1,5-a][1,4]diazepine-2-carboxamide]",7.00 to 9.00
5,"C[C@@H]1Cc2nn3c(c2CN1C(=O)Nc1ccc(F)c(C#N)c1)C(=O)N(C)CC1(CC(O)C1)C3 (stereo partly drawn) [Compound 141, (R)-N-(3-Cyano-4-fluorophenyl)-3-hydroxy-3′,10′-dimethyl-11′-oxo-1′,3′,4′,9′,10′,11′-hexahydro-2′H,7′H-spiro[cyclobutane-1,8′-pyrido[4′,3′:3,4]pyrazolo[1,5-a][1,4]diazepine]-2′-carboxamide]",7.00 to 9.00
6,"C[C@@H]1Cc2nn3c(c2CN1C(=O)Nc1ccc(F)c(C#N)c1)C(=O)N(C)CC1(CC(F)C1)C3 (stereo partly drawn) [Compound 142, (R)-N-(3-Cyano-4-fluorophenyl)-3-fluoro-3′,10′-dimethyl-11′-oxo-1′,3′,4′,9′,10′,11′-hexahydro-2′H,7′H-spiro[cyclobutane-1,8′-pyrido[4′,3′:3,4]pyrazolo[1,5-a][1,4]diazepine]-2′-carboxamide]",7.00 to 9.00
7,"C[C@@H]1Cc2nn3c(c2CN1C(=O)Nc1ccc(F)c(C#N)c1)C(=O)N(C)CC1(C3)CC(F)(F)C1 [Compound 143, (R)-N-(3-Cyano-4-fluorophenyl)-3,3-difluoro-3′,10′-dimethyl-11′-oxo-1′,3′,4′,9′,10′,11′-hexahydro-2′H,7′H-spiro[cyclobutane-1,8′-pyrido[4′,3′:3,4]pyrazolo[1,5-a][1,4]diazepine]-2′-carboxamide]",7.00 to 9.00
8,"C[C@@H]1Cc2nn3c(c2CN1C(=O)Nc1ccc(F)c(C#N)c1)C(=O)N(C)[C@H](CF)C3 [Compound 149, (3R,8S)-N-(3-cyano-4-fluorophenyl)-8-(fluoromethyl)-3,9-dimethyl-10-oxo-3,4,7,8,9,10-hexahydropyrido[4′,3′:3,4]pyrazolo[1,5-a]pyrazine-2(1H)-carboxamide]",7.00 to 9.00
9,"C[C@@H]1Cc2nn3c(c2CN1C(=O)Nc1ccc(F)c(C#N)c1)C(=O)N(C)[C@H](COCC(F)F)C3 [Compound 150, (3R,8S)-N-(3-cyano-4-fluorophenyl)-8-((2,2-difluoroethoxy)methyl)-3,9-dimethyl-10-oxo-3,4,7,8,9,10-hexahydropyrido[4′,3′:3,4]pyrazolo[1,5-a]pyrazine-2(1H)-carboxamide]",7.00 to 9.00
